Experimental data as given in US20150126467A1, “USE OF ALGINATE OLIGOMERS TO ENHANCE THE EFFECTS OF ANTIFUNGAL AGENTS” (AlgiIPharma AS, priority 2011, published 2015).
In brackets after ≈: the same amount, converted by molar mass. Read-outs that look alike come from different tables or passages of the source.

Legend:
Type in all cases: cell-based
[1] = tested on: Aspergillus flavus CCUG 28296; experiment: Robotic MIC assay, Aspergillus (Example 4); conditions: Mueller-Hinton broth; for MIC: Aspergillus flavus, CCUG23451 / CCUG28296, 48 h, read-out: Minimum Inhibitory Concentration (MIC); for Minimum Inhibitory Concentration (MIC): A. flavus CCUG 23451, 48 hours
Method: (§1) Aspergillus sp. was grown at 30° C. for 96 h on YM-agar. Spores and aerial mycelium was cut out from the agar, suspended in 1 ml YM-broth and dispersed with glass beads (1 mm) in a mini bead beater for 2 min. Glycerol was added to the suspension to 10% and frozen at −80° C.
(§2) Each batch of frozen stock culture was then characterized in separate growth experiments using Mueller-Hinton broth to determine the minimum amount of inoculum giving satisfactory growth after 48 h under the conditions relevant for the MIC assay. This inoculation procedure is used in order to reduce day to day variation in bioassays.
(§3) Robotic minimum inhibitory concentration (MIC) assay was performed as follows. OligoG CF-5/20 was dissolved in medium (Mueller-Hinton broth) to 1.25 times of the desired assay concentrations (2, 6 and 10%). […].
(§4) Two-fold serial dilutions of antifungal agents were made in medium with different concentrations of OligoG CF-5/20, and the solutions were placed in four parallel wells in Nunc 384-well micro plates (30 μl per well in Nunc 242757 microplates). A group of 8 wells with no addition of antifungal agents for each OligoG CF-5/20 concentration was included on each micro plate as growth reference. Each well in the 384-well assay plates was added 7.5 μl of the MH medium inoculated with frozen stock culture of the relevant strains.
(§5) The microplates were placed in plastic bags and incubated without shaking at 34° C. The optical density at 600 nm in the microwells was measured after approximately 24 and 48 hours of incubation. […]

[2] = tested on: Aspergillus niger CCUG 18919; experiment: Robotic MIC assay, Aspergillus (Example 4); conditions: Mueller-Hinton broth; for MIC: Aspergillus niger, CCUG18919, 48 h, read-out: Minimum Inhibitory Concentration (MIC); for Minimum Inhibitory Concentration (MIC): A. niger CCUG 18919, 48 hours
Method: as §1, §2, §3, §4, §5

[3] = tested on: Aspergillus fumigatus CCUG 17460; experiment: Robotic MIC assay, Aspergillus (Example 4); conditions: Mueller-Hinton broth; for MIC: Aspergillus fumigatus, CCUG17460, 48 h, read-out: Minimum Inhibitory Concentration (MIC); for Minimum Inhibitory Concentration (MIC): A. fumigatus CCUG 17460, 48 hours
Method: as §1, §2, §3, §4, §5

[4] = tested on: C. krusei 249/03(2) (ulceration); experiment: Robotic MIC assay, Candida strains (Example 2); conditions: 48 h, Mueller-Hinton broth; for MIC: Pichia kudriavzevii, read-out: Minimum Inhibitory Concentration (MIC)
Outline: (§6)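 Broth microdilution in Mueller-Hinton broth: two-fold serial dilutions of each antifungal with 0, 2, 6 or 10% OligoG CF-5/20 G-fragments, four parallel wells, static incubation at 34° C. OD600 gave growth relative to antifungal-free references; MIC (μg ml-1) read after 48 h.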

C. albicans CCUG 39343 = experiment: Robotic MIC assay, Candida strains (Example 2); conditions: Mueller-Hinton broth; for MIC: Candida albicans, CCUG39343, 48 h, read-out: Minimum Inhibitory Concentration (MIC); for Minimum Inhibitory Concentration (MIC): 48 h
Outline: as §6

[5] = tested on: C. lusitaniae 994/01(2) (candidosis); experiment: Robotic MIC assay, Candida strains (Example 2); conditions: 48 h, Mueller-Hinton broth; for MIC: Clavispora lusitaniae, read-out: Minimum Inhibitory Concentration (MIC)
Outline: as §6

[6] = tested on: various Aspergillus species; experiment: Robotic MIC assay, summary over species (Example 4); conditions: Aspergillus species tested
Method: as §1, §2, §3, §4, §5

[7] = A. flavus CCUG 23451, 0% OligoG
[8] = A. flavus CCUG 23451, 2% OligoG
[9] = A. flavus CCUG 23451, 6% OligoG
[10] = A. flavus CCUG 23451, 10% OligoG
[11] = A. niger CCUG 18919, 10% OligoG
[12] = A. fumigatus CCUG 17460, 0% OligoG
[13] = A. fumigatus CCUG 17460, 2% OligoG
[14] = A. fumigatus CCUG 17460, 6% OligoG
[15] = A. fumigatus CCUG 17460, 10% OligoG

OC(Cn1cncn1)(Cn1cncn1)c1ccc(F)cc1F [Fluconazole, fluconazole]
MIC [1, 7]: 64 µg/mL (≈ 209 µM)
MIC [1, 8]: 64 µg/mL (≈ 209 µM)
MIC [1, 9]: 32 µg/mL (≈ 104 µM)
MIC [1, 10]: 32 µg/mL (≈ 104 µM)
MIC ([2]; A. niger CCUG 18919, 0% OligoG): > 128 µg/mL
MIC ([2]; A. niger CCUG 18919, 2% OligoG): > 128 µg/mL
MIC ([2]; A. niger CCUG 18919, 6% OligoG): > 128 µg/mL
MIC [2, 11]: 128 µg/mL (≈ 418 µM)
MIC [3, 12]: > 128 µg/mL
MIC [3, 13]: > 128 µg/mL
MIC [3, 14]: 128 µg/mL (≈ 418 µM)
MIC [3, 15]: 128 µg/mL (≈ 418 µM)
MIC ([4]; 0% OligoG): 8 µg/mL (≈ 26.1 µM)
MIC ([4]; 2% OligoG): 4 µg/mL (≈ 13.1 µM)
MIC ([4]; 6% OligoG): 2 µg/mL (≈ 6.53 µM)
MIC ([4]; 10% OligoG): 1 µg/mL (≈ 3.27 µM)
MIC (C. albicans CCUG 39343; 0% OligoG): 16 µg/mL (≈ 52.2 µM)
MIC (C. albicans CCUG 39343; 2% OligoG): 16 µg/mL (≈ 52.2 µM)
MIC (C. albicans CCUG 39343; 6% OligoG): 8 µg/mL (≈ 26.1 µM)
MIC (C. albicans CCUG 39343; 10% OligoG): 4 µg/mL (≈ 13.1 µM)
MIC ([5]; 0% OligoG): 0.5 µg/mL (≈ 1.63 µM)
MIC ([5]; 2% OligoG): 0.25 µg/mL (≈ 0.816 µM)
MIC ([5]; 6% OligoG): < 0.125 µg/mL
MIC ([5]; 10% OligoG): < 0.125 µg/mL

Clc1ccc(COC(Cn2ccnc2)c2ccc(Cl)cc2Cl)c(Cl)c1 (stereo not shown) [Miconazole, miconazole]
MIC [1, 7]: 1 µg/mL (≈ 2.4 µM)
MIC [1, 8]: 0.25 µg/mL (≈ 0.601 µM)
MIC [1, 9]: 0.25 µg/mL (≈ 0.601 µM)
MIC [1, 10]: 0.25 µg/mL (≈ 0.601 µM)
MIC ([2]; A. niger CCUG 18919, 0% OligoG): 1 µg/mL (≈ 2.4 µM)
MIC ([2]; A. niger CCUG 18919, 2% OligoG): 0.5 µg/mL (≈ 1.2 µM)
MIC ([2]; A. niger CCUG 18919, 6% OligoG): 0.25 µg/mL (≈ 0.601 µM)
MIC [2, 11]: 0.25 µg/mL (≈ 0.601 µM)
MIC [3, 12]: 4 µg/mL (≈ 9.61 µM)
MIC [3, 13]: 2 µg/mL (≈ 4.81 µM)
MIC [3, 14]: 2 µg/mL (≈ 4.81 µM)
MIC [3, 15]: 2 µg/mL (≈ 4.81 µM)
effect of addition of OligoG CF-5/20 on MIC values [6]: reduction in MIC values

CN(C/C=C/C#CC(C)(C)C)Cc1cccc2ccccc12 [Terbinafine, terbinafine]
MIC [1, 7]: 0.125 µg/mL (≈ 0.429 µM)
MIC [1, 8]: 0.0625 µg/mL (≈ 0.214 µM)
MIC [1, 9]: < 0.0312 µg/mL
MIC [1, 10]: < 0.0312 µg/mL
MIC ([2]; A. niger CCUG 18919, 0% OligoG): 0.5 µg/mL (≈ 1.72 µM)
MIC ([2]; A. niger CCUG 18919, 2% OligoG): 0.25 µg/mL (≈ 0.858 µM)
MIC ([2]; A. niger CCUG 18919, 6% OligoG): 0.0625 µg/mL (≈ 0.214 µM)
MIC [2, 11]: 0.125 µg/mL (≈ 0.429 µM)
MIC [3, 12]: 4 µg/mL (≈ 13.7 µM)
MIC [3, 13]: 4 µg/mL (≈ 13.7 µM)
MIC [3, 14]: 4 µg/mL (≈ 13.7 µM)
MIC [3, 15]: 2 µg/mL (≈ 6.86 µM)
effect of addition of OligoG CF-5/20 on MIC values [6]: reduction in MIC values
MIC ([4]; 0% OligoG): 4 µg/mL (≈ 13.7 µM)
MIC ([4]; 2% OligoG): 4 µg/mL (≈ 13.7 µM)
MIC ([4]; 6% OligoG): 8 µg/mL (≈ 27.5 µM)
MIC ([4]; 10% OligoG): 4 µg/mL (≈ 13.7 µM)
MIC (C. albicans CCUG 39343; 0% OligoG): > 32 µg/mL
MIC (C. albicans CCUG 39343; 2% OligoG): > 32 µg/mL
MIC (C. albicans CCUG 39343; 6% OligoG): > 32 µg/mL
MIC (C. albicans CCUG 39343; 10% OligoG): > 32 µg/mL
MIC ([5]; 0% OligoG): 8 µg/mL (≈ 27.5 µM)
MIC ([5]; 2% OligoG): 4 µg/mL (≈ 13.7 µM)
MIC ([5]; 6% OligoG): 4 µg/mL (≈ 13.7 µM)
MIC ([5]; 10% OligoG): 2 µg/mL (≈ 6.86 µM)

C[C@@H]1[C@H](O)[C@@H](C)/C=C/C=C/CC/C=C/C=C/C=C/C=C/C(O[C@H]2O[C@H](C)[C@@H](O)[C@H](N)[C@@H]2O)CC2O[C@](O)(CC(O)C(O)CCC(O)CC(O)CC(O)CC(=O)O[C@H]1C)CC(O)C2C(=O)O (stereo partly shown) [Nystatin, nystatin]
Minimum Inhibitory Concentration (MIC) ([1]; 0% OligoG): 8 µg/mL
Minimum Inhibitory Concentration (MIC) ([1]; 2% OligoG): 8 µg/mL
Minimum Inhibitory Concentration (MIC) ([1]; 6% OligoG): 4 µg/mL
Minimum Inhibitory Concentration (MIC) ([1]; 10% OligoG): 2 µg/mL
Minimum Inhibitory Concentration (MIC) ([2]; 0% OligoG): 8 µg/mL
Minimum Inhibitory Concentration (MIC) ([2]; 2% OligoG): 4 µg/mL
Minimum Inhibitory Concentration (MIC) ([2]; 6% OligoG): 2 µg/mL
Minimum Inhibitory Concentration (MIC) ([2]; 10% OligoG): 0.5 µg/mL
Minimum Inhibitory Concentration (MIC) ([3]; 0% OligoG): 8 µg/mL
Minimum Inhibitory Concentration (MIC) ([3]; 2% OligoG): 8 µg/mL
Minimum Inhibitory Concentration (MIC) ([3]; 6% OligoG): 4 µg/mL
Minimum Inhibitory Concentration (MIC) ([3]; 10% OligoG): 2 µg/mL
effect of addition of OligoG CF-5/20 on MIC values [6]: reduction in MIC values
Minimum Inhibitory Concentration (MIC) ([4]; 0% OligoG): 8 µg/mL
Minimum Inhibitory Concentration (MIC) ([4]; 2% OligoG): 8 µg/mL
Minimum Inhibitory Concentration (MIC) ([4]; 6% OligoG): 8 µg/mL
Minimum Inhibitory Concentration (MIC) ([4]; 10% OligoG): 4 µg/mL
Minimum Inhibitory Concentration (MIC) (C. albicans CCUG 39343; 0% OligoG): 8 µg/mL
Minimum Inhibitory Concentration (MIC) (C. albicans CCUG 39343; 2% OligoG): 8 µg/mL
Minimum Inhibitory Concentration (MIC) (C. albicans CCUG 39343; 6% OligoG): 4 µg/mL
Minimum Inhibitory Concentration (MIC) (C. albicans CCUG 39343; 10% OligoG): 2 µg/mL
Minimum Inhibitory Concentration (MIC) ([5]; 0% OligoG): 8 µg/mL
Minimum Inhibitory Concentration (MIC) ([5]; 2% OligoG): 8 µg/mL
Minimum Inhibitory Concentration (MIC) ([5]; 6% OligoG): 2 µg/mL
Minimum Inhibitory Concentration (MIC) ([5]; 10% OligoG): 1 µg/mL

C[C@@H]1[C@H](O)[C@@H](C)/C=C/C=C/C=C/C=C/C=C/C=C/C=C/[C@H](O[C@@H]2O[C@H](C)[C@@H](O)[C@H](N)[C@@H]2O)C[C@@H]2O[C@](O)(C[C@@H](O)C[C@@H](O)[C@H](O)CC[C@@H](O)C[C@@H](O)CC(=O)O[C@H]1C)C[C@H](O)[C@H]2C(=O)O [Amphotericin B, amphotericin B]
MIC [1, 7]: 0.75 µg/mL (≈ 0.812 µM)
MIC [1, 8]: 0.375 µg/mL (≈ 0.406 µM)
MIC [1, 9]: 0.375 µg/mL (≈ 0.406 µM)
MIC [1, 10]: 0.188 µg/mL (≈ 0.203 µM)
MIC ([2]; A. niger CCUG 18919, 0% OligoG): 0.188 µg/mL (≈ 0.203 µM)
MIC ([2]; A. niger CCUG 18919, 2% OligoG): 0.188 µg/mL (≈ 0.203 µM)
MIC ([2]; A. niger CCUG 18919, 6% OligoG): 0.0938 µg/mL (≈ 0.101 µM)
MIC [2, 11]: 0.0469 µg/mL (≈ 0.0507 µM)
MIC [3, 12]: 0.75 µg/mL (≈ 0.812 µM)
MIC [3, 13]: 0.375 µg/mL (≈ 0.406 µM)
MIC [3, 14]: 0.375 µg/mL (≈ 0.406 µM)
MIC [3, 15]: 0.188 µg/mL (≈ 0.203 µM)
effect of addition of OligoG CF-5/20 on MIC values [6]: reduction in MIC values
